Data set [1] can be described thus: Study B: cross-sectional comparison of paricalcitol and calcitriol (ESA dose, Hb, PTHi, ferrokinetics). The data set is classed as in vivo, human. The note with it: for ESA doses required: Epoetin beta; for PTHi: median (p25-p75). As for the experimental part: A cross-sectional study designed to assess the differences between calcitriol and paricalcitol associated with the use of ESAs, both used in the treatment of secondary hyperparathyroidism. A total of 92 patients from the Chronic Dialysis Unit of the Hospital Universitario Son Espases (HUSE) in Palma de Mallorca and from the Chronic Haemodialysis Unit of the Policlínica Miramar were included. A total of 31 patients were treated with calcitriol and a total of 61 patients were treated with paricalcitol. The ESA analysed was Epoetin beta (Neorecormon).
In order to determine whether treatment with calcitriol is capable of giving rise to the same results obtained in the treatment with paricalcitol, the groups of patients included in Study B were analysed (Table 2), one of the groups treated with paricalcitol (n=61) and the other group treated with calcitriol (n=31).

Data set [2] concerns transferrin saturation index (TSI). The data set can be described thus: Study A: evolution of the transferrin saturation index (TSI). The data set is classed as in vivo, human. The conditions noted are these: for average TSI: subgroup with IV Fe (n=25). The method, then: (§1) A controlled prospective study in which the evolution of ESA doses, Fe supplement doses, evolution of Fe, of transferrin, of ferritin, of the transferrin saturation index, of the haemoglobin levels and of the non-conventional markers associated with inflammatory anaemia was determined: Hepcidin and IL-6 and analysis of the hormones associated with a improved erythropoietic response. The variability of the haemoglobin was also assessed. A total of 31 patients were included in this study. The ESAs used by the patients were Epoetin beta (Neorecormon) and CERA.
(§2) This study is a controlled, observational and analytical prospective-type study of cases and controls. The study lasted six months. In the first three months the ESA dose titrations were obtained and, in the remaining three months corresponded to the maintenance phase. The data shown in the present invention form part of the MIR-EPO Study (EudraCT: 2009-015511-40) https://www.clinicaltrialsregister.eu. The design of the MIR-EPO Study assessed patients being treated with an erythropietic agent (Epoetin-beta-Neorecormon or CERA). In said patients, the differences between the groups with and without paricalcitol were analysed, due to which the results shown in the present invention related specifically to the following groups: • Group of patients being treated with paricalcitol (paricalcitol+ESA), i.e. combined treatment, and • Group of patients being treated exclusively with an ESA.
The administration of iron supplements shall always be intravenous with the aim of maintaining a transferrin saturation index (TSI %) greater than 20%.

Data set [3] in a line: Study A (MIR-EPO): ESA dose requirements. Format: in vivo, human. The method, then:
as §1
as §2, with “The data shown in the present invention form part of the MIR-EPO Study (EudraCT: 2009-015511-40) https://www.clinicaltrialsregister.eu.” left out, “ESA. […]” for “ESA.”

The next data set relates to plasma iron (Fe^2+). The data set can be described thus: Study A: evolution of iron (Fe^2+) levels. The note with it: for Fe^2+ levels: subgroup with IV Fe supplements (n=25). The data set is classed as in vivo, human. As for the experimental part:
as §1, §2

Another data set has as its system Erythropoietin. Nature of the data set: Study A: plasma erythropoietin levels (ELISA). The data set is classed as in vivo, human. As for the experimental part: Analytical determinations: all the blood samples were analysed in the central laboratory of the HUSE, applying the methodology regularly used in clinical practice: • Hb: Haemoglobin was determined on a monthly basis prior to the dialysis session and corresponding weekday. The analysis of the samples was performed using flow cytometry (CELL-DYN Sapphire®—Abbott) at the central laboratory of the HUSE. • Klotho: Human Soluble α-Klotho Assay Kit—IBL. ELISA (Enzyme-LinkedImmunoSorbentAssay) sandwich type using two types of high-specificity anti-Human Klotho antibodies (67G3 and 91F1). Using TeTraMeltilBenzidina (TMB) as a chromogeneous agent. • Hepcidin: DGR HepcidinProhormone ELISA kit. ELISA (Enzyme-LinkedImmunoSorbentAssay) of competitive type with anti-Pro-Hepcidin (polyclonal) antibodies. • IL-6: Quantikine ELISA Human IL-6 immunoassay. ELISA (Enzyme-LinkedImmunoSorbentAssay) sandwich type using specific antibodies for mouse monoclonal and polyclonal IL-6. • Erythropoietin: Quantikine IVD ELISA Human Erythropoietin Immunoassay. […]
The non-conventional inflammatory parameters were determined in months 3 and 6 of the study, due to the fact that it is considered that the first three months of the study were dedicated to ESA dose titration and the last three months to the maintenance phase, as mentioned previously. […]
(ELISA stands for enzyme-linked immunosorbent assay.)

Data set [4] can be described thus: Study C: cross-sectional study of paricalcitol dose versus ESA dose and Hb levels. Format: in vivo, human. The conditions noted are these: paricalcitol 5-10 μg/week. An excerpt: A cross-sectional study designed to assess the distribution of the dose of paricalcitol (μg/week) associated with a greater erythropoietic response. That is, the aim is to assess the predictive capacity of the doses of paricalcitol (μg/week) over the doses of ESA (UI/week), in addition to assessing the doses of paricalcitol to predict Hb levels (g/dl) and identify the doses of paricalcitol associated with certain Hb levels in a range between 10 and 12 g/dl, which are the levels considered to be optimum.
A total of 58 patients were included in this study. The ESA analysed was Epoetin beta (Neorecormon).
In order to determine the most adequate doses required to obtain the best Hb levels and reduce the need for ESAs, a regression analysis was performed between the Hb levels, the doses of ESAs and the dose of paricalcitol in the group of patients of Study C (FIG. 2). As can be observed in said FIG. 2, the doses comprised between 5 and 10 μg were associated to a reduced need for ESAs. This trend was modified on increasing the doses of paricalcitol, due to which, according to this regression model, the administration of doses of paricalcitol higher than 10 μg/week predicts a greater use of ESAs.

The conditions of data set [5]: paricalcitol >10 μg/dialysis, haemodialysis patients; cited from earlier work.
A further data set deals with PTH. The note with it: oral paricalcitol, cited from earlier work.

Where two headings read alike, the source gives them in different places.

As to `C=C1/C(=C\C=C2/CCC[C@]3(C)[C@@H]([C@H](C)CCCC(C)(C)O)CC[C@@H]23)C[C@@H](O)C[C@@H]1O` [calcitriol], in data set [1], the Ferritin is 168 (111-298) ng/ml, the Hb levels turned out to be 11.10 ± 1.16 g/dL, the TSI % was found to be 24 ± 10% and the ESA doses required came to 9000 UI/week. Besides, the PTHi in data set [1] is 358 (230-623) pg/ml.

Regarding `C=C1CC[C@H](O)C/C1=C/C=C1\CCC[C@]2(C)[C@@H]([C@H](C)CCCC(C)(C)O)CC[C@@H]12` [hidroferol, calcifediol], the “effect over TSI” value in data set [2] (6 months) is given as “not beneficial”. For the same molecule, the TSI levels is reported as 29±12% in data set [2] (month 0), 33±14% in data set [2] (month 3) and 25±9% in data set [2] (month 6).

Take `C[C@H](/C=C/[C@H](C)C(C)(C)O)[C@H]1CC[C@H]2/C(=C/C=C3C[C@@H](O)C[C@H](O)C3)CCC[C@]12C` [paricalcitol, 19-nor-1, 25-(OH) 2-vitamin D2]: the “evolution of ESA requirements” value in data set [3] (months 0-6) is “significant decrease”. Moreover, the “lower dose of ESA versus group treated exclusively with ESA” value in data set [3] (subgroup with IV Fe, month 6) came out at 24%. Also, the entries for the “average TSI” value in data set [2] (month 0), in data set [2] (month 3) and in data set [2] (month 6) were 25±6%, 24±5% and 30±19%, respectively. The “Iron (Fe^2+) levels” value worked out at 68 ± 23 µg/dL in the data set on plasma iron (Fe^2+) (month 0), 68 ± 28 µg/dL with plasma iron (Fe^2+) (month 3) and 66 ± 37 µg/dL with plasma iron (Fe^2+) (month 6). Further, the “Fe^2+ levels” value stood at 61 ± 16 µg/dL with plasma iron (Fe^2+) (month 0), 57 ± 14 µg/dL in the data set with plasma iron (Fe^2+) (month 3) and 68 ± 37 µg/dL with plasma iron (Fe^2+) (month 6). Besides, the plasma erythropoietin levels is 8.6 (4.6-16.7) mUI/ml in the data set with Erythropoietin (month 3) and 20.2 (7.2-33.6) mUI/ml in the data set on Erythropoietin (month 6). Besides, the Ferritin in data set [1] is on record as 494 (244-701) ng/ml. In addition, the Hb levels in data set [1] turned out to be 11.89 ± 0.13 g/dL. For the same molecule, the TSI % in data set [1] is reported as 30 ± 10%. Further, the ESA doses required entry in data set [1] was “approximately 4000 UI/week”. Further, the PTHi in data set [1] is given as 276 (170-449) pg/ml. The “plasma Hb levels predicted by regression” value in data set [4] is given as 10-12 g/dl. Further, the calcium levels in data set [5] is 9.8 mg/dL. For the same molecule, the PTH levels in the data set with PTH (after treatment) was 93 pg/mL; with PTH (basal level), 147 pg/mL. Also, the “reduction of PTH levels with respect to the basal level” value with PTH was approximately 40%.

Source of the values: patent publication US11464791B2, “Use of paricalcitol in the treatment of inflammatory anaemia” (priority 2014, dated 2022).
